Measured values reported in patent publication US9376406B2, “uPAR-uPA interaction inhibitors and methods for treating cancer” (Indiana University Research and Technology Corporation, priority 2011, dated 2016).

Key:
uPAR = molecular target: T1, uPAR (Homo sapiens, UniProt Q03405); assay: Fluorescence polarization assay, displacement of GFD-FAM; assay type: binding; details: displacement of GFD-FAM from uPAR
T1 construct: uPAR comprising amino acids 1-277 was expressed in Drosophila S2 cells; made in house; host or cells: Drosophila S2 cells
Procedure: Fluorescence Polarization Assay. […] Polarized fluorescence intensities were measured immediately following addition of inhibitors to the protein-peptide mix at room temperature on an EnVision® Multilabel Plate Readers (PerkinElmer) with excitation and emission wavelengths of 485 and 530 nm, respectively.
Fluorescence Polarization Screening to Identify Hit Compounds. To identify compounds that bind to uPAR at the GFD binding site, a fluorescent polarization assay is conceived with a probe that consists of labeling GFD with fluorescein at its N-terminus (GFD-FAM). […] Using this assay, all compounds that emerge from the computational screening are tested initially at a single concentration of 50 μM. The compounds showing the highest reduction in polarization are subjected to activity confirmation.

MDA-MB-231 cells [1] = assay: Wound healing assay; assay type: cell-based; details: Homo sapiens; MDA-MB-231, wound healing; read-out: migration IC50
Procedure: (§1) Wound Healing Assay. Confluent cell monolayers in 12-well plates were wounded by scraping with a micropipette tip. The cells were washed and then cultured in complete media containing the compounds. The degree of wound closure was assessed in three randomly chosen regions by measuring the distance between the wound edges just after wounding and after 16 h under Nikon Diaphot 300 microscope.
(§2) Without being bound by theory, it is believed that, to invade neighboring tissue, cells must acquire additional motility, although invasion and migration may proceed through different mechanisms. […] The first uses the Boyden chamber apparatus to assess the effect of compound on migration primarily mediated by chemotaxis. […] The other approach to test for effects on migration was the wound healing assay, which probes migration mediated by a concentration gradient established by the wound. It is also not as sensitive to potential cytotoxic effects.

H1299 cells [2] = assay: Wound healing assay; assay type: cell-based; details: Homo sapiens, NCI-H1299, read-out: migration IC50
Procedure: as §1, §2

MDA-MB-231 cells [3] = assay: Transwell (Boyden chamber) migration assay; assay type: cell-based, human
Procedure: (§3) Transwell Migration Assay. A 24 well transwell plates (Costar, Corning, N.Y.) were coated with fibronectin. After 4 h of serum starvation, medium containing the same amount of compounds or DMSO were added to the upper chamber and incubated at 37° C. for 8 h. The number of migrated cells was counted in 10 separate 200×fields and averaged over three independent experiments. Cytotoxicity of the compounds on the cells was measured at the same concentrations used in the migration assay during the same incubation time. MTT was added 2 h before measuring.
as §3, with “A” for “Transwell Migration Assay. A”, “30 ng/μl of fibronectin at 4° C. overnight. 500 μl of 10% FBS RPMI-1640 medium containing compounds or 1% DMSO control was added to the lower chamber.” for “fibronectin.”, “starvation, 5×10^4 cells in 250 μl of 0.1% FBS” for “starvation,”, “h. […]” for “h.”, “time,” for “time.”, “measuring. […]” for “measuring.”

H1299 cells [4] = assay: Transwell (Boyden chamber) migration assay; assay type: cell-based, human
Procedure: as §3
as §3, with “A” for “Transwell Migration Assay. A”, “30 ng/μl of fibronectin at 4° C. overnight. 500 μl of 10% FBS RPMI-1640 medium containing compounds or 1% DMSO control was added to the lower chamber.” for “fibronectin.”, “starvation, 5×10^4 cells in 250 μl of 0.1% FBS” for “starvation,”, “h. […]” for “h.”, “time,” for “time.”, “measuring. […]” for “measuring.”

MDA-MB-231 cells [5] = assay: Invasion assay (Matrigel invasion chamber); assay type: cell-based, human
Procedure: (§4) Invasion Assay. Invasion assays are performed using the Biocoat Matrigel invasion chamber (BD Biosciences, Bedford, Mass.) according to the manufacturer's protocol. The undersurface of the inserts were coated with 30 ng/μl of fibronectin at 4° C. overnight. The filters were equilibrated with 0.5 ml serum-free medium for 2 h. After 4 h of serum starvation, cells were harvested and 5×10^4 cells/500 μl were plated onto the upper chamber of a Transwell filter in medium containing 0.1% FBS and the indicated compounds. 500 μl of 10% FBS medium containing the same amount of compounds or DMSO control were added to the lower chamber. After a 24 h incubation at 37° C. in 5% CO2, the filters were fixed and the number of cells that had invaded was determined as described for the migration assay.
(§5) Testing of the effects of IPR-465 on processes critical for metastasis in cell culture, starting with invasion, was undertaken. A Boyden chamber apparatus was used and results are shown in FIG. 3(a), where the bar groups correspond, from left to right, to H1299 invasion, H1299 cytotoxicity, MDA-MB-231 invasion, MDA-MB-231 cytotoxicity, and in FIG. 3(b), where the bar groups correspond, from left to right, to H1299 Boyden Chamber, H1299 wound healing, H1299 cytotoxicity, MDA-MB-231 Boyden Chamber, MDA-MB-231 wound healing, MDA-MB-231 cytotoxicity.
(§6) Ten fields of unit area on each membrane were counted for cell numbers (magnification, 200×). […] The effect of the compound appears to be more pronounced in MDA-MB-231 cells compared with H1299. The level of toxicity of the compounds is measured at each concentration within the timescale of the invasion experiment to ensure that the observed effects are not due to cytotoxicity (FIG. 3(a)).
(§7) MDA-MB-231 cells were transfected with siRNAs for uPAR, control siRNA (control) or with transfection reagent only (mock). After 48 h, cells were lysed and analysed by immunoblotting.

H1299 cells [6] = assay: Invasion assay (Matrigel invasion chamber); assay type: cell-based, human
Procedure: as §4, §5, §6, §7

T1 sequence (Q03405 23-299): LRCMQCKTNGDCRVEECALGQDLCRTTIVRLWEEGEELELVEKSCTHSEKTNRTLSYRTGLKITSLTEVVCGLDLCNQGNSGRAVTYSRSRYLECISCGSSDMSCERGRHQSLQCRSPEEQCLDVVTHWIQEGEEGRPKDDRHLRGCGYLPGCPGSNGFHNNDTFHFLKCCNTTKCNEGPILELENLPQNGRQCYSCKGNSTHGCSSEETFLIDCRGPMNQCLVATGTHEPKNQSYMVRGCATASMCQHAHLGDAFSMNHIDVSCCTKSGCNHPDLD

Question: For `CC1CC(C)CN(c2cc(Nc3ccccc3C(=O)O)c3c4c(onc24)-c2ccccc2C3=O)C1` (centres unmarked) [IPR-456], which Ki (uPAR) is on record?
Answer: The Ki was 4 µM.

Question: What about the IC50 (MDA-MB-231 cells [1]) of the same molecule?
Answer: The IC50 was about 150 µM.

Question: What about the IC50 (H1299 cells [2]) of the same molecule?
Answer: Its IC50 is about 150 µM.

Question: What about the “migration, Boyden chamber” value (MDA-MB-231 cells [3]) of the same molecule?
Answer: Its value is “blocked migration in a dose-dependent manner”.

Question: And the “migration, Boyden chamber” value (H1299 cells [4])?
Answer: The value was “blocked migration in a dose-dependent manner”.

Question: And the IC50 (MDA-MB-231 cells [5]; Homo sapiens, MDA-MB-231)?
Answer: The IC50 was about 50 µM.

Question: And the “number of cells able to invade through the membrane” value (MDA-MB-231 cells [5]; MDA-MB-231)?
Answer: Its value is “dose-dependent reduction”.

Question: What about the influence on invasion (MDA-MB-231 cells [5]; MDA-MB-231 with siRNA knockdown of uPAR) of the same molecule?
Answer: Its influence on invasion is “no additional influence on invasion”.

Question: What about the “number of cells able to invade through the membrane” value (H1299 cells [6]; H1299) of the same molecule?
Answer: The value was “dose-dependent reduction”.

Question: What about the influence on invasion (H1299 cells [6]; H1299 with siRNA knockdown of uPAR) of the same molecule?
Answer: The influence on invasion was “no additional influence on invasion”.

Question: What about the IC50 (H1299 cells [6]; Homo sapiens, NCI-H1299) of the same molecule?
Answer: Its IC50 is about 50 µM.
